# Source: patent publication US11065211B2, “Isoxylitones mediated neurogenesis” (priority 2018, dated 2021)
# Test system: cortical cells and hippocampal cells
# Assay: MTT assay, in vitro screening of compounds for cell proliferation activity
# Type: cell-based, rat
# Conditions: 24 hrs treatment
# Source text: The Tetrazolium MTT [3-(4, 5-dimethyl thiazol-2-yl)-2,5-diphenyl tetrazolium bromide] Assay: MTT assay was used to screen various compounds for their proliferating effect on cortical cells and hippocampal cells. The principle of MTT test is based on the ability of live cells to form insoluble purple formazan product from the breakdown of the water soluble yellow tetrazolium salt by mitochondrial enzyme succinate dehydrogenase (Mosmann, 1983). The resulting intracellular purple formazan can quantify by spectrophotometric means. The MTT Cell Proliferation Assay measures the cell proliferation rate and conversely, when metabolic events lead to apoptosis or necrosis, the reduction in cell viability.
# The density of the cortical and hippocampal cells was adjusted at the density 2×10^5 cells/mL in complete DMEM medium (5% FBS). The cells (5000/well) were then plated in 96-wells plate and incubated for 24 hrs at 37° C. with 5% CO2. Following 24 hrs incubation, media was removed and 100 μL of each test compounds in DMEM media (5% FBS) were added. […] The culture plates were re-incubated for 24 hrs at 37° C. in 5% CO2. Cells treated with 0.1% DMSO in complete media (5% FBS) were used as vehicle controls. […] The absorbance was read at 495 nm on spectrophotometer. […] The percent rate of proliferation was calculated using the following formula, % rate of proliferation={(At−Ab)/(Ac−Ab)}×100
smiles,measurement,value
"CC1=CC(=CC(=O)O)CC(C)(C)C1 (mixture of isomers) [acid analog, (E/Z)-2-(3,5,5-trimethylcyclohex-2-enylidene)acetic acid]",activity on the cell proliferation (MTT screening),significant potent activity of isoxylitones followed by acid analog
